Article PMC11859928, “Design, Synthesis, and Antiproliferative Activity of Novel Indole/1,2,4-Triazole Hybrids as Tubulin Polymerization Inhibitors” (Pharmaceuticals, 2025)

Tests used:
Test in all cases: NCI one-dose assay
Type in all cases: cell-based
[1] = system: SF-295; conditions: Homo sapiens, SF-295, CNS cancer, read-out: Cell growth inhibition %
Experimental: (§1) The National Cancer Institute (NCI), Bethesda, USA, selected the final compounds 6a–j and 7a–j for in vitro anticancer screening. An initial in vitro single-dose anticancer experiment was performed with the entire NCI 60 cell lines derived from nine tumor subpanel cancer cell lines. The results for each compound were illustrated as a mean graph showing the percentage growth of treated cells compared to untreated control cells (see Supplementary Materials).
(§2) The NCI anticancer screening process has been thoroughly detailed. The Drug Evaluation Branch of the National Cancer Institute in Bethesda, […], USA, established the procedure and conducted the anticancer assay on 60 human tumor cell lines from nine neoplastic cancers.

[2] = system: PC-3; conditions: Homo sapiens, PC-3, Prostate cancer, read-out: Cell growth inhibition %
Experimental: as §1, §2

[3] = system: RPMI-8226; conditions: Homo sapiens, RPMI-8226, Leukemia, read-out: Cell growth inhibition %
Experimental: as §1, §2

[4] = system: SR; conditions: Homo sapiens, Leukemia, read-out: Cell growth inhibition %
Experimental: as §1, §2

[5] = system: CCRF-CEM; conditions: Homo sapiens, Leukemia, read-out: Cell growth inhibition %
Experimental: as §1, §2

[6] = system: NCI-H522; conditions: Homo sapiens, NCI-H522, Non-small cell lung cancer, read-out: Cell growth inhibition %
Experimental: as §1, §2

[7] = system: SK-MEL-28; conditions: Homo sapiens, SK-MEL-28, Melanoma, read-out: Cell growth inhibition %
Experimental: as §1, §2

[8] = system: U251; conditions: Homo sapiens, U-251, U251, CNS cancer, read-out: Cell growth inhibition %
Experimental: as §1, §2

[9] = system: HCT-15; conditions: Homo sapiens, HCT-15, Colon cancer, read-out: Cell growth inhibition %
Experimental: as §1, §2

[10] = system: SF-539; conditions: Homo sapiens, SF-539, CNS cancer, read-out: Cell growth inhibition %
Experimental: as §1, §2

[11] = system: BT-549; conditions: Homo sapiens, BT-549, Breast cancer, read-out: Cell growth inhibition %
Experimental: as §1, §2

[12] = system: MOLT-4; conditions: Homo sapiens, MOLT-4, Leukemia, read-out: Cell growth inhibition %
Experimental: as §1, §2

[13] = system: COLO 205; conditions: Homo sapiens, COLO 205, Colon cancer, read-out: Cell growth inhibition %
Experimental: as §1, §2

[14] = system: ACHN; conditions: Homo sapiens, Renal cancer, read-out: Cell growth inhibition %
Experimental: as §1, §2

[15] = system: SN12C; conditions: Homo sapiens, Renal cancer, read-out: Cell growth inhibition %
Experimental: as §1, §2

[16] = system: UACC-62; conditions: Homo sapiens, UACC-62, Melanoma, read-out: Cell growth inhibition %
Experimental: as §1, §2

[17] = system: MALME-3M; conditions: Homo sapiens, Melanoma, read-out: Cell growth inhibition %
Experimental: as §1, §2

[18] = system: NCI/ADR-RES; conditions: Homo sapiens, Ovarian cancer, read-out: Cell growth inhibition %
Experimental: as §1, §2

[19] = system: EKVX; conditions: Homo sapiens, Non-small cell lung cancer, read-out: Cell growth inhibition %
Experimental: as §1, §2

[20] = system: NCI-H23; conditions: Homo sapiens, NCI-H23, Non-small cell lung cancer, read-out: Cell growth inhibition %
Experimental: as §1, §2

[21] = system: IGROV1; conditions: Homo sapiens, IGROV-1, IGROV1, Ovarian cancer, read-out: Cell growth inhibition %
Experimental: as §1, §2

[22] = system: HCT-116; conditions: Homo sapiens, HCT-116, Colon cancer, read-out: Cell growth inhibition %
Experimental: as §1, §2

[23] = system: NCI-H226; conditions: Homo sapiens, NCI-H226, Non-small cell lung cancer, read-out: Cell growth inhibition %
Experimental: as §1, §2

[24] = system: CAKI-1; conditions: Homo sapiens, CAKI-1, Renal cancer, read-out: Cell growth inhibition %
Experimental: as §1, §2

[25] = system: HCC-2998; conditions: Homo sapiens, HCC-2998, Colon cancer, read-out: Cell growth inhibition %
Experimental: as §1, §2

[26] = system: OVCAR-3; conditions: Homo sapiens, OVCAR-3, Ovarian cancer, read-out: Cell growth inhibition %
Experimental: as §1, §2

[27] = system: MDA-MB-231/ATCC; conditions: Homo sapiens, Breast cancer, read-out: Cell growth inhibition %
Experimental: as §1, §2

[28] = system: SK-OV-3; conditions: Homo sapiens, SK-OV-3, Ovarian cancer, read-out: Cell growth inhibition %
Experimental: as §1, §2

[29] = system: K-562; conditions: Homo sapiens, K562, K-562, Leukemia, read-out: Cell growth inhibition %
Experimental: as §1, §2

[30] = system: UACC-257; conditions: Homo sapiens, UACC-257, Melanoma, read-out: Cell growth inhibition %
Experimental: as §1, §2

[31] = system: KM12; conditions: Homo sapiens, KM12, Colon cancer, read-out: Cell growth inhibition %
Experimental: as §1, §2

[32] = system: DU-145; conditions: Homo sapiens, DU-145, Prostate cancer, read-out: Cell growth inhibition %
Experimental: as §1, §2

[33] = system: A549/ATCC; conditions: Homo sapiens, Non-small cell lung cancer, read-out: Cell growth inhibition %
Experimental: as §1, §2

[34] = system: OVCAR-5; conditions: Homo sapiens, OVCAR-5, Ovarian cancer, read-out: Cell growth inhibition %
Experimental: as §1, §2

[35] = system: NCI-H460; conditions: Homo sapiens, NCI-H460, Non-small cell lung cancer, read-out: Cell growth inhibition %
Experimental: as §1, §2

[36] = system: HL-60(TB); conditions: Homo sapiens, Leukemia, read-out: Cell growth inhibition %
Experimental: as §1, §2

[37] = system: HS 578 T; conditions: Homo sapiens, Breast cancer, read-out: Cell growth inhibition %
Experimental: as §1, §2

COc1ccc(C(=O)CSc2nnc(-c3c[nH]c4ccccc34)n2-c2ccccc2)cc1 [Compound 6g, 2-((5-(1H-Indol-3-yl)-4-phenyl-4H-1,2,4-triazol-3-yl)thio)-1-(4-methoxyphenyl) Ethenone]
inhibition at 10 µM [1]: 63.8%
inhibition at 10 µM [2]: 49.7%
inhibition at 10 µM [3]: 27.3%
inhibition at 10 µM [4]: 20.3%
inhibition at 10 µM [5]: 17.5%
inhibition at 10 µM [6]: 54.3%
inhibition at 10 µM [7]: 50.3%
inhibition at 10 µM [8]: 65.6%
inhibition at 10 µM [9]: 26.7%
inhibition at 10 µM [10]: 71.5%
inhibition at 10 µM [11]: 75.3%
inhibition at 10 µM [12]: 17.9%
inhibition at 10 µM [13]: 15.2%
inhibition at 10 µM [14]: 77.2%
inhibition at 10 µM [15]: 55.6%
inhibition at 10 µM [16]: 74.2%
inhibition at 10 µM [17]: 116%
inhibition at 10 µM [18]: 100%
inhibition at 10 µM [19]: 70.7%
inhibition at 10 µM [20]: 43.5%
inhibition at 10 µM [21]: 39.5%
inhibition at 10 µM [22]: 47.5%
inhibition at 10 µM [23]: 99.9%
inhibition at 10 µM [24]: 38.5%
inhibition at 10 µM [25]: 22.2%
inhibition at 10 µM [26]: 46.4%
inhibition at 10 µM [27]: 54.4%
inhibition at 10 µM [28]: 33.7%
inhibition at 10 µM [29]: 41.8%
inhibition at 10 µM [30]: 40.5%
inhibition at 10 µM [31]: 11.9%
inhibition at 10 µM [32]: 31.1%
inhibition at 10 µM [33]: 26%
inhibition at 10 µM [34]: 22.6%
inhibition at 10 µM [35]: 34.5%
inhibition at 10 µM [36]: 18.7%
inhibition at 10 µM [37]: 84.5%

Cc1ccc(C(=O)CSc2nnc(-c3c[nH]c4ccccc34)n2-c2ccccc2)cc1 [Compound 6h, 2-((5-(1H-Indol-3-yl)-4-phenyl-4H-1,2,4-triazol-3-yl)thio)-1-(p-tolyl)ethenone]
inhibition at 10 µM [1]: 88.9%
inhibition at 10 µM [2]: 57%
inhibition at 10 µM [3]: 41.1%
inhibition at 10 µM [4]: 47%
inhibition at 10 µM [5]: 39.2%
inhibition at 10 µM [6]: 98.6%
inhibition at 10 µM [7]: 51%
inhibition at 10 µM [8]: 90.2%
inhibition at 10 µM [9]: 56.2%
inhibition at 10 µM [10]: 77.9%
inhibition at 10 µM [11]: 77.6%
inhibition at 10 µM [12]: 38.3%
inhibition at 10 µM [13]: 25%
inhibition at 10 µM [14]: 79.6%
inhibition at 10 µM [15]: 75.1%
inhibition at 10 µM [16]: 76.1%
inhibition at 10 µM [17]: 64.8%
inhibition at 10 µM [18]: 128%
inhibition at 10 µM [19]: 47%
inhibition at 10 µM [20]: 82.7%
inhibition at 10 µM [21]: 75.8%
inhibition at 10 µM [22]: 92.3%
inhibition at 10 µM [23]: 141%
inhibition at 10 µM [24]: 87.6%
inhibition at 10 µM [25]: 33.6%
inhibition at 10 µM [26]: 34.8%
inhibition at 10 µM [27]: 102%
inhibition at 10 µM [28]: 76%
inhibition at 10 µM [29]: 72.8%
inhibition at 10 µM [30]: 22.7%
inhibition at 10 µM [31]: 49%
inhibition at 10 µM [32]: 21.1%
inhibition at 10 µM [33]: 46.7%
inhibition at 10 µM [34]: 87%
inhibition at 10 µM [35]: 70.7%
inhibition at 10 µM [36]: 56.6%
inhibition at 10 µM [37]: 101%

O=C(CSc1nnc(-c2c[nH]c3ccccc23)n1-c1ccccc1)c1ccc(Br)cc1 [Compound 6i, 2-((5-(1H-Indol-3-yl)-4-phenyl-4H-1,2,4-triazol-3-yl)thio)-1-(4-bromophenyl) Ethenone]
inhibition at 10 µM [1]: 66.3%
inhibition at 10 µM [2]: 53.8%
inhibition at 10 µM [3]: 45.6%
inhibition at 10 µM [4]: 9.15%
inhibition at 10 µM [5]: 13.6%
inhibition at 10 µM [6]: 53.7%
inhibition at 10 µM [7]: 65.1%
inhibition at 10 µM [8]: 38.4%
inhibition at 10 µM [9]: 56%
inhibition at 10 µM [10]: 38%
inhibition at 10 µM [11]: 34.8%
inhibition at 10 µM [12]: 7.77%
inhibition at 10 µM [13]: 86.5%
inhibition at 10 µM [14]: 62.6%
inhibition at 10 µM [15]: 27.1%
inhibition at 10 µM [16]: 64.8%
inhibition at 10 µM [17]: 29%
inhibition at 10 µM [18]: 100%
inhibition at 10 µM [19]: 89.2%
inhibition at 10 µM [20]: 46%
inhibition at 10 µM [21]: 35.9%
inhibition at 10 µM [22]: 45.7%
inhibition at 10 µM [23]: 60.9%
inhibition at 10 µM [24]: 55.7%
inhibition at 10 µM [25]: 68.3%
inhibition at 10 µM [26]: 57.5%
inhibition at 10 µM [27]: 34%
inhibition at 10 µM [28]: 51.4%
inhibition at 10 µM [29]: 18%
inhibition at 10 µM [30]: 47.5%
inhibition at 10 µM [31]: 65.4%
inhibition at 10 µM [32]: 41.5%
inhibition at 10 µM [33]: 70.1%
inhibition at 10 µM [34]: 41.7%
inhibition at 10 µM [35]: 65.5%
inhibition at 10 µM [36]: 55.5%
inhibition at 10 µM [37]: 47.7%
